From PMC5529018, “Discovery of novel brain permeable and G protein-biased beta-1 adrenergic receptor partial agonists for the treatment of neurocognitive disorders” (PLoS ONE, 2017)

Experiments:
ADRB1 [1] = biological target: T1, ADRB1 (Homo sapiens, UniProt P08588); assay: β-arrestin assay (PathHunter enzyme fragment complementation); format: cell-based; design: host or cells: CHO-K1 (PathHunter)
Method: Pharmacological activity of compounds in the β-arrestin pathway mediated by ADRB1 were evaluated using an enzyme fragment complementation method with a β‐galactosidase functional reporter. An engineered CHO-K1-ADRB1 PathHunter cell line (DiscoveRx) was used in the assay. In this cell line, the enzyme acceptor (β‐galactosidase fragment) is fused to β-arrestin and the enzyme donor (β‐galactosidase fragment) is fused to the ADRB1. Thus, activation of the ADRB1 stimulates binding of β-arrestin to the ProLink-tagged ADRB1 and forces complementation of the two enzyme fragments, resulting in the formation of an active β‐galactosidase enzyme. Briefly, CHO-K1-ADRB1 PathHunter cell lines were plated in a total volume of 20 μL cell plating reagent (DiscoveRx, 93-0563R0A) at a density of 2,500 cells/well into 384 well microplates and incubated overnight at 37°C in 5% CO2. […] Chemiluminescent signal was then read with a PerkinElmer Envision (Perkin Elmer, Inc., MA) instrument. The results were expressed as a percent of the maximum efficacy achieved with isoproterenol.

ADRB1 [2] = biological target: T1, ADRB1; assay: cAMP assay (HTRF), ADRB1; format: cell-based; design: expressed in transfected cells; host or cells: HEK-293; settings: for Emax: 0.5 h, percent efficacy vs maximum response of isoproterenol, read-out: cAMP pathway ADRB1 % Iso max; for EC50 / cAMP pathway ADRB1 EC50: HEK-293 cells, geometric mean (95% confidence limits) of at least two experiments; for EC50: read-out: cAMP pathway ADRB1 EC50; for ADRB1 agonist activity (cAMP pathway), in words: compared to xamoterol (S)
Method: Pharmacological effects of compounds at the cAMP pathway mediated by ADRB1 were evaluated by measuring cAMP production using the homogenous time-resolved fluorescence detection method with HEK-293 cells stably expressing human recombinant ADRB1. Briefly, cells were suspended in HBSS buffer completed with 20 mM HEPES (pH 7.4) and 500 μM IBMX (3-isobutyl-1-methylxanthine) and distributed at a density of 3x10^3 cells/well. […] Following incubation, the cells were lysed and the fluorescence acceptor (D2-labeled cAMP) and fluorescence donor (anti-cAMP antibody labeled with europium cryptate) were added. […] The results were expressed as a percent of the maximum efficacy achieved with isoproterenol. Pharmacological effects of compounds at the cAMP pathway mediated by ADRB2 and ADRB3 were measured as described above using CHO cells stably expressing human recombinant ADRB2 and human SK-N-MC neurotumor cells endogenously expressing ADRB3, respectively.

[3] = test system: LPS-induced TNFα response; assay: In vivo LPS assay; design: species or system C57Bl/6J mice; settings: 90 min post-LPS
Method: ; subcutaneous; […]; intraperitoneal; n = 4) or vehicle (5% DMSO/20%PEG400/water; intraperitoneal; n = 12) 15 min prior to LPS (50 ug/kg; intraperitoneal). A control group was injected with vehicle 15 minutes prior to saline (n = 18). Following injections, mice were single-housed. At 90 min post-LPS/saline, mice were deeply anesthetized with isoflurane and blood was collected from the right ventricle via cardiac puncture (23 g needle) into lithium heparin-containing vials (BD microtainer plasma tubes). Subsequently, brains were collected after perfusion with phosphate-buffered saline. Plasma was separated by centrifugation (11,000 rpm for 3 minutes) within 60 min of collection and stored at -80°C until analysis. The concentration of TNFα in the collected plasma was measured by ELISA (Invitrogen, KMC3012) according to the manufacturer’s instruction. The LPS-induced inflammatory response in the CNS was assessed by measuring mRNA expression for genes related to neuroimmune activation in brain tissue according to the previously reported method. Briefly, total RNA was extracted from hippocampus containing coronal sections using the RNeasy Lipid Tissue Mini Kit (Qiagen), and transcribed into cDNA (Superscript III, Invitrogen). PCR was performed in duplicate using TaqMan gene expression assays, TNFα (Mm00443258_m1), IL1b (Mm00434228_m1), IL6 (Mm00446190_m1), and glyceraldehyde-3-phosphate dehydrogenase (GAPDH; Mm99999915_g1). Fold changes of expression relative to control were determined after normalization to GAPDH. Relative quantification and fold change were calculated by the comparative CT method. Brain uptake of STD-101-D1 was determined in brain tissue. […]

[4] = biological target: panel of CNS relevant targets, including G protein-coupled receptors and transporters; assay: Off-target binding screen, panel of CNS relevant targets; settings: broad range of neurotransmitter transporters, ion channels and other CNS proteins; read-out: off-target affinity Ki
[5] = test system: LPS-induced TNFα production in primary microglia; assay: In vitro primary microglia TNFα assay; format: cell-based, Sprague Dawley rat; settings: Rattus norvegicus, 4 h, read-out: inhibition of LPS-induced TNFα production
Excerpt: Mixed glial cells were obtained from the cerebral cortex of Sprague Dawley rat pups at postnatal days 1–3. Briefly, neonates were euthanized by decapitation and their brain tissues were collected for cortex isolation. The isolated cortex was then trypsinized, triturated, and placed into tissue culture flasks in DMEM supplemented with 10% fetal bovine serum and 1% Penicillin/Streptomycin. After 10 days in vitro, microglia were harvested by gentle shaking of the growth flask, plated in a 96 well plate at a density of 30,000 cells/well, and incubated at 37°C overnight.

[6] = Pharmacokinetic study 2, 20-min post-dose collection; format: in vivo, Sprague-Dawley rats; settings: rat, 10 mg/kg, 20 min post-dose
Excerpt: Two cohorts of Sprague-Dawley rats were used in two independent studies. All animals were fasted overnight before the experiment with free access to water. In study 1, a total of 18 rats were used for a 4 hr time course pharmacokinetic (PK) study. Rats were anesthetized with 3% isoflurane and catheters were implanted into the jugular and/or portal veins for compound administration and/or blood sampling at 1 to 2 days prior to the experiments as previously described. […] Four hours post-dose, rats were deeply anesthetized with isoflurane and blood samples were collected by cardiac puncture. In study 2, a total of 18 rats were used for a 20 min post-dose collection study. […] At 20 min post-dose, rats were deeply anesthetized with isoflurane and blood samples were collected by cardiac puncture. Brains were collected after perfusion with phosphate buffered saline. All plasma samples were immediately separated after collection by centrifugation (11,000 rpm for 3 minutes) and stored at −80°C until analysis. […] Tulobuterol was used as the internal standard. The flow rate was set to 0.45 ml/min. Column temperature was 25°C. […] The injection volume was 20 μl. The mass spectrometer was operated in the positive mode with multiple-reaction monitoring (MRM). […] Mobile phase A consisted of 10 mM ammonium acetate and 0.1% formic acid in LCMS grade water. Mobile phase B consisted of 10 mM ammonium acetate and 0.1% formic acid in LCMS grade acetonitrile:water 90:10% (v/v). […] Five μl of the extracted samples were injected. […] Data acquisition and analysis were performed using the Analyst 1.6.1 software (AB SCIEX, CA).

[7] = Cardiovascular studies (heart rate, blood pressure); format: in vivo, Sprague-Dawley rats; settings: anesthetized rats, 3 mg/kg subcutaneous
Method: A polyethylene catheter (PE50) filled with heparinized saline was then inserted into the tail artery and connected to the blood pressure transducer system. After ensuring the absence of any air bubbles, 5–10 min of baseline systolic and diastolic blood pressure along with heart rate measurements were recorded using LabChart Pro (AD Instruments, CO).

[8] = cited from earlier work

T1 sequence (P08588 whole entry, the tested form may be a part): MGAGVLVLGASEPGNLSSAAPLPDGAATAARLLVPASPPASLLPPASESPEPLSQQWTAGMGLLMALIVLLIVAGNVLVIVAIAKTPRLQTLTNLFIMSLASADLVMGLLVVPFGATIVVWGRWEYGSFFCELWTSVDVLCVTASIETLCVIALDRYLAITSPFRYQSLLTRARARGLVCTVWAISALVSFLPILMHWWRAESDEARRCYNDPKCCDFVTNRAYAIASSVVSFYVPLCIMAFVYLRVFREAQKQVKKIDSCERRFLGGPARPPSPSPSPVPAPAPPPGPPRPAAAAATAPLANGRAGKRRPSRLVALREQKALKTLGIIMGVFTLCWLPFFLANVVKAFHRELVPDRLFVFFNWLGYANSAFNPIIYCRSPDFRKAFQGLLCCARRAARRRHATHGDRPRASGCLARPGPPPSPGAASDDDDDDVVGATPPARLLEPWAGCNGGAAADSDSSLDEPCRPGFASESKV

Structure (SMILES): COc1ccc(CCNCC(O)COc2ccc(O)c(O)c2)cc1OC (stereo not shown) [RO363, reference compound]
- EC50 (ADRB1 [1]; CHO-K1-ADRB1 PathHunter cells, read-out: β-arrestin pathway ADRB1 EC50): 32.2 nM
- β-arrestin pathway ADRB1 % Iso max (ADRB1 [1]; percent efficacy vs maximum response of isoproterenol): 36.5%
- decrease in potency vs xamoterol (S), cAMP ADRB1 (ADRB1 [2]): approximately 3 fold
- increase in efficacy vs xamoterol (S), cAMP ADRB1 (ADRB1 [2]): approximately 2 fold
- Emax (ADRB1 [2]): 104 ± 23.9%
- EC50 (ADRB1 [2]): 7.9 nM

Structure (SMILES): O=C(NCCNC[C@H](O)COc1cc(Cl)c(O)cc1F)N1CCOCC1 [STD-101-B4, (S)-N-(2-((3-(5-chloro-2-fluoro-4-hydroxyphenoxy)-2-hydroxypropyl)amino)ethyl)morpholine-4-carboxamide]
- cAMP pathway ADRB1 EC50 (ADRB1 [2]): no response
- ADRB1 agonist activity (cAMP pathway), in words (ADRB1 [2]): abolished the agonist activity completely

Structure (SMILES): N#Cc1cc(OC[C@@H](O)CNCCNC(=O)N2CCOCC2)ccc1O [STD-101-B6, (S)-N-(2-((3-(3-cyano-4-hydroxyphenoxy)-2-hydroxypropyl)amino)ethyl)morpholine-4-carboxamide]
- Emax (ADRB1 [2]): 25.1 ± 4.7%
- EC50 (ADRB1 [2]): 7.1 nM
- ADRB1 agonist activity (cAMP pathway), in words (ADRB1 [2]): decrease in both potency and efficacy

Structure (SMILES): N#Cc1cc(OC[C@@H](O)CNCCNC(=O)N2CCOCC2)c(F)cc1O [STD-101-B8, (S)-N-(2-((3-(5-cyano-2-fluoro-4-hydroxyphenoxy)-2-hydroxypropyl)amino)ethyl)morpholine-4-carboxamide]
- cAMP pathway ADRB1 EC50 (ADRB1 [2]): no response
- ADRB1 agonist activity (cAMP pathway), in words (ADRB1 [2]): abolished the agonist activity completely

Structure (SMILES): O=C(NCCNC[C@H](O)COc1cccc2c(O)cccc12)N1CCOCC1 [STD-101-E, (S)-N-(2-((2-hydroxy-3-((5-hydroxynaphthalen-1-yl)oxy)propyl)amino)ethyl)morpholine-4-carboxamide]
- cAMP pathway ADRB1 EC50 (ADRB1 [2]): no response
- ADRB1 agonist activity (cAMP pathway), in words (ADRB1 [2]): inactive

Structure (SMILES): O=C(NCCNC[C@H](O)COc1ccc(O)cc1)N1CCOCC1 [Xamoterol (S)]
- LPS-induced systemic (plasma) TNFα response ([3]; 3 mg/kg pre-treatment 15 min prior to LPS): markedly inhibited
- Ki [4]: > 10000 nM
- inhibition at 10 µM [5]: ~55%

Structure (SMILES): O=C(NCCNCC(O)COc1ccc(O)cc1)N1CCOCC1 (stereo not shown) [Xamoterol, reference compound]
- CNS inflammatory markers after LPS ([3]; 3 mg/kg subcutaneous pre-treatment): Significant effects of xamoterol were not observed
- plasma concentration after PO as percent of that after IP [6]: 0.2%
- plasma concentration after PO as percent of that after IV [6]: 0.7%
- decrease in blood pressure [7]: 9%
- increase in heart rate [7]: 4%
- oral bioavailability in humans [8]: 5%

Structure (SMILES): CC(C)NCC(O)c1ccc(O)c(O)c1 (stereo not shown) [isoproterenol]
- inhibition at 10 µM [5]: ~80%
